{
  "source": "patent US9371295B2",
  "about": "“Compounds for use in the treatment of disorders that are ameliorated by inhibition of HDAC” (IRBM—Science Park S.p.A., priority 2012, dated 2016)",
  "key": {"[1]": {"system": "erythroid precursor cells (ErPC) from β-thalassemia patients", "experiment": "Fetal hemoglobin production in erythroid precursor cells from β-thalassemia patients (HPLC)", "assay_type": "cell-based, human", "from_the_text": "Stimulation of the production of mRNA for γ-globin in human erythroid precursors isolated from peripheral blood was detected by using the technique by Fibach (Fibach, E. Hemoglobin, 1998, 22, 445-458; Blood, 1993, 81, 1630-1635). Blood samples were obtained from subjects after written informed consent and the local ethical commette approved the study. This technique provides for two stages: in the first stage, the cells isolated from peripheral blood of an healthy subject or a subject suffering from a hemopoietic pathology, such as sickle cell anaemia or beta-thalassemia, are sown in a culture medium to which 10% of conditioned medium derived from the vescicle carcinoma cell line 5637 has been added. The second stage consists in cultivating the isolated cells in a suitable culture medium, supplemented with erythropoiethin. In short, mononuclear cells were isolated from peripheral blood samples of normal donors and patients by Ficoll-Hypaque density gradient centrifugation and seeded in alpha-minimal essential medium (Sigma-Aldrich) supplemented with 10% FBS (Analitica de Mori), 1 μg/mL cyclosporin A (Sigma-Aldrich), and 10% conditioned medium from the 5637 bladder carcinoma cell line and 10 ng/ml stem cell factor (PeproTech EC Ltd, London, England). After 7-day incubation in this phase I culture, the non-adherent cells were harvested, washed, and recultured in fresh medium composed of α-medium, 30% FBS, 1% de-ionized bovine serum albumin (Sigma-Aldrich), 10^−5 M β-mercaptoethanol, 2 mM L-glutamine, 10^−6 M dexamethasone, 1 U/ml human recombinant erythropoietin (Tebu-bio, Magenta, MI, Italy) and 10 ng/ml stem cell factor. This part of the culture is referred to as phase II. Compounds were added on day 4-5 of phase II and cells were harvested on day 12. All cultures were incubated at 37° C., under an atmosphere of 5% CO2 in air, with extra humidity. The expression of the genes encoding for γ-globin was evaluated by quantitative RT-PCR. The production of HbF was analyzed by HPLC. […]"}, "[2]": {"experiment": "Rat PK studies, oral dose", "assay_type": "in vivo, Sprague-Dawley rats", "conditions": "male, Sprague-Dawley, plasma, po 10 mg/kg", "procedure": "Rats Male Sprague-Dawley rats (250-350 g) were used for the absorption disposition studies. In each rat an indwelling cannula was implanted in the right jugular vein for blood sampling. The surgery was performed under light anaesthesia (Ketamine-Xilazine (85 mg/kg and 2.5 mg/kg respectively i.m.) one day prior the experiment). During the kinetic study, all animals were housed individually in plastic metabolism cages, and were unrestrained throughout the experiment. Compounds (6 mg/mL) were dissolved in 20% DMSO/60% PEG400/20% water for intravenous administration, and dissolved or suspended in 1% methylcellulose for oral administration (2 mg/ml). After an overnight fast, the rats received an i.v. (via caudal vein) or an oral dose of the compound. Blood samples were collected at different times point after dosing. Plasma was separated immediately after blood sampling by centrifugation, and the plasma samples were kept frozen (−20° C.) until assayed by LC/MS/MS.\nAnalytical procedures: Plasma samples were extracted using Liquid Handling Robot MultiProbe Packard by protein precipitation with acetonitrile. Then the samples were centrifuged (3000 rpm×15 min at 4° C.) and the supernatant transferred and dried under nitrogen. The samples were reconstituted in water/acetonitrile 90/10 and then injected directly into an HPLC column. Sample analyses were performed using a an API 3000 or/and API 2000 or/and API 4000 Mass Spectrometer interfaced via the Turbo Ion Spray (ESI)/APCI to an LC system consisting of an HTS PAL CTC autosampler and an Agilen HP 1100 Binary Pump. The results are calculated using Analyst Software linear regression with 1/x*x weighting. The Assay Precision was calculated for the Quality Controls by Watson Lims database.\nPharmacokinetic Analysis: The plasma clearance (CLp) of the compounds were calculated (using Watson PK program) as the dose divided by the area under the plasma concentration-time curve from time zero to infinity (AUC0-∞). The apparent half-life was estimated from the slope of the terminal phase of the log plasma concentration-time data. The volume of distribution (Vdss) was determined using the following noncompartmental method: Vdss=(Dose IV×AUMC)/(AUC0-∞)2\nwhere AUMC is the total area under the first moment of the drug concentration time curve from time zero to infinity. Bioavailability was estimated as the AUC0-∞ ratio following oral and intravenous administration, normalized for differences in dose."}},
  "note": "Where “and” joins values, the source holds several entries; their conditions need not be identical. Equal values may be shown once.",
  "data": [
    {"smiles": "CCC(=O)CCCCC[C@H](NC(=O)C1CN(C)C1)c1ncc(-c2cc3ccccc3nc2OC)o1", "note": "[Compound 2, (S)-N-(1-(5-(2-methoxyquinolin-3-yl)oxazol-2-yl)-7-oxononyl)-1-methylazetidine-3-carboxamide]", "values": [
      {"measurement": "% of fetal hemoglobin production", "setting": "[1]; ErPC from β-thalassemia patients 1-3 (one line per patient), 100 nM", "result": "78.6% and 85.5% and 81.5%"},
      {"measurement": "proportion of HbF in lysates (cation-exchange HPLC, FIG. 1)", "setting": "[1]; ErPC from β-thalassemic patients, 100 nM, in words", "result": "Increase in the proportion of HbF is detectable"},
      {"measurement": "induction of HbF in erythroid precursor cells (ErPC)", "setting": "[1]; ErPC from β-thalassemic patients, in words", "result": "strong inducer of HbF"},
      {"measurement": "AUC", "setting": "[2]", "result": 40, "unit": "µM·h"},
      {"measurement": "Cmax", "setting": "[2]", "result": 2790, "unit": "nM"}
    ]}
  ]
}
